From publication PMC10364322, “Evaluation of chronic drug-induced electrophysiological and cytotoxic effects using human-induced pluripotent stem cell-derived cardiomyocytes (hiPSC-CMs)” (Frontiers in Pharmacology, 2023)
Like-named read-outs stand apart in the source and are kept apart here.

Test system: hiPSC-CMs (iCell-Cardiomyocytes^2)
In short: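 Monolayers of hiPSC-CMs on fibronectin-coated MEA plates, 50 K/well, kept at 37°C, 5% CO2; compounds added in 0.1% final DMSO after 5-min baseline. Field potential and impedance parameters expressed as mean ± SD percent change from baseline; arrhythmic events noted; cytotoxicity fluorescence normalized to DMSO, Kruskal-Wallis.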

CCN(CC)CCNC(=O)c1c(C)[nH]c(/C=C2\C(=O)Nc3ccc(F)cc32)c1C [Sunitinib]
BR (beating rate), % change from baseline (0.03 µM, 2h): 0±2%
FPD (field-potential duration), % change from baseline (0.03 µM, 2h): 5.5±1.5%
FPDc (field-potential duration corrected by beat-rate), % change from baseline (0.03 µM, 2h): 5.3±1.7%
BR (beating rate), % change from baseline (0.03 µM, 24h): -2±3%
FPD (field-potential duration), % change from baseline (0.03 µM, 24h): 11±4.2%
FPDc (field-potential duration corrected by beat-rate), % change from baseline (0.03 µM, 24h): 10.1±3.1%
BR (beating rate), % change from baseline (0.03 µM, 48h): -13±2%
FPD (field-potential duration), % change from baseline (0.03 µM, 48h): 20.5±2.7%
FPDc (field-potential duration corrected by beat-rate), % change from baseline (0.03 µM, 48h): 14.9±1.9 %
BR (beating rate), % change from baseline (0.03 µM, 72h): -10±2%
FPD (field-potential duration), % change from baseline (0.03 µM, 72h): 19.2±2%
FPDc (field-potential duration corrected by beat-rate), % change from baseline (0.03 µM, 72h): 15±1.8%
BR (beating rate), % change from baseline (0.03 µM, 96h): -18±1%
FPD (field-potential duration), % change from baseline (0.03 µM, 96h): 27.4±1.8%
FPDc (field-potential duration corrected by beat-rate), % change from baseline (0.03 µM, 96h): 19.3±1.7%
BR (beating rate), % change from baseline (0.1 µM, 2h): -5±1%
FPD (field-potential duration), % change from baseline (0.1 µM, 2h): 12.2±1.2 %
FPDc (field-potential duration corrected by beat-rate), % change from baseline (0.1 µM, 2h): 10.3±1 %
BR (beating rate), % change from baseline (0.1 µM, 24h): -8±4%
FPD (field-potential duration), % change from baseline (0.1 µM, 24h): 25.6±6.7 %
FPDc (field-potential duration corrected by beat-rate), % change from baseline (0.1 µM, 24h): 21.9±5 %
BR (beating rate), % change from baseline (0.1 µM, 48h): -19±2 %
FPD (field-potential duration), % change from baseline (0.1 µM, 48h): 35.8±4.6 %
FPDc (field-potential duration corrected by beat-rate), % change from baseline (0.1 µM, 48h): 26.3±3.6 %
BR (beating rate), % change from baseline (0.1 µM, 72h): -17±2 %
FPD (field-potential duration), % change from baseline (0.1 µM, 72h): 36.3±3.3 %
FPDc (field-potential duration corrected by beat-rate), % change from baseline (0.1 µM, 72h): 28.2±2.6 %
BR (beating rate), % change from baseline (0.1 µM, 96h): -24±1%
FPD (field-potential duration), % change from baseline (0.1 µM, 96h): 49±7.7 %
FPDc (field-potential duration corrected by beat-rate), % change from baseline (0.1 µM, 96h): 36.1±6.4 %
time point from which EAD-like events occurred (0.3 µM): 24 h
BR (beating rate), % change from baseline (0.3 µM, 2h): -15±2 %
FPD (field-potential duration), % change from baseline (0.3 µM, 2h): 32.5±1.7 %
FPDc (field-potential duration corrected by beat-rate), % change from baseline (0.3 µM, 2h): 25.4±1.4 %
BR (beating rate), % change from baseline (0.3 µM, 24h): -29±5 %
FPD (field-potential duration), % change from baseline (0.3 µM, 24h): 103.1±24.2 %
FPDc (field-potential duration corrected by beat-rate), % change from baseline (0.3 µM, 24h): 80.7±18.4 %
BR (beating rate), % change from baseline (0.3 µM, 48h): -39±4 %
FPD (field-potential duration), % change from baseline (0.3 µM, 48h): 120.5±24.7 %
FPDc (field-potential duration corrected by beat-rate), % change from baseline (0.3 µM, 48h): 87.2±17.5 %
BR (beating rate), % change from baseline (0.3 µM, 72h): -38±1 %
FPD (field-potential duration), % change from baseline (0.3 µM, 72h): 135.9±4.7 %
FPDc (field-potential duration corrected by beat-rate), % change from baseline (0.3 µM, 72h): 101±3.5 %
BR (beating rate), % change from baseline (0.3 µM, 96h): -44±2 %
FPD (field-potential duration), % change from baseline (0.3 µM, 96h): 152.4±12.3 %
FPDc (field-potential duration corrected by beat-rate), % change from baseline (0.3 µM, 96h): 108.1±8 %
BR (beating rate), % change from baseline (1 µM, 2h): -49±4 %
FPD (field-potential duration), % change from baseline (1 µM, 2h): 182.8±8.5 %
FPDc (field-potential duration corrected by beat-rate), % change from baseline (1 µM, 2h): 128.9±4.9 %
BR (beating rate), % change from baseline (1 µM, 24h): -67±3 %
BR (beating rate), % change from baseline (1 µM, 48h): -68±4 %
BR (beating rate), % change from baseline (1 µM, 72h): -70±0 %
